According to patent US6436373B1, “Oligomeric diarylbutadienes” (BASF Aktiengesellschaft, priority 1998, dated 2002):

Assay: UV absorption (λmax and specific absorbance E1^1)
Assay type: physicochemical
Details: for λmax.: UV absorption maximum, no unit or solvent printed; for E1^1: specific absorbance at λmax, solvent not given

SMILES: CCOC(=O)/C(=C/C=C(c1ccccc1)c1ccccc1)C(=O)OCCOC(=O)/C(=C\C=C(c1ccccc1)c1ccccc1)C(=O)OCC [Example 2]
- λmax.: 336
- E1^1: 800

SMILES: N#C/C(=C/C=C(c1ccccc1)c1ccccc1)C(=O)OCCOC(=O)/C(C#N)=C\C=C(c1ccccc1)c1ccccc1 [Example 3]
- λmax.: 354
- E1^1: 850
